Experiment [1] relates to ethylene-induced epinasty in tomato plants. The experiment can be described thus: Tomato epinasty test, volatile gas treatment. Format: in vivo, Patio variety tomato seedlings. As to conditions: ethylene 10 ppm v/v injected four hours later, scored visually sixteen hours later, 10 = complete protection, 0 = no protection; for Gas @ 10 ppm: degree of protection against ethylene-induced epinasty, rating on a scale of 0 to 10: compound as volatile gas at 10 ppm v/v. How it is done: (§1) Objective: The test procedure is designed to determine the ability of an experimental compound to block the epinastic growth response induced by ethylene in tomato plants when the experimental compound is administered either as a volatile gas or as a component of a spray solution.
(§2) Treatment chambers are of an appropriate size for the test plants and are airtight. Each is fitted with a reusable septum to be used for injection of ethylene. Test plants are Patio variety tomato seedlings planted two plants per three inch square plastic pot.
Volatile gas treatment entails placing two pots of Patio var. tomatoes into a polystyrene 4.8 L volume treatment chamber along with one-half (upper or lower section) of a 50×9 mm plastic Petri dish containing a Gelman filter pad. The appropriate amount of experimental compound, dissolved in 1.0 ml acetone, is pipetted onto the filter pad and the chamber immediately sealed. Four hours later ethylene gas equal to 10 ppm v/v final concentration is injected into the sealed chamber. Sixteen hours later the chambers are opened in an exhaust hood, allowed to air and the plants scored visually for the degree of protection against ethylene-induced epinasty conferred by the experimental compound when compared to ethylene treated and untreated controls on a scale of 0 to 10. A rating of 10 means complete protection. A rating of 0 means no protection from the effects of ethylene. Gas treatment concentrations are volume/volume.

Experiment [2] has the same test system. The experiment can be described thus: Tomato epinasty test, spray application treatment. The following applies: spray at 10 ppm in 10% acetone/90% water with 0.05% Silwett L-77; air-dried four hours; ethylene 10 ppm v/v; scored visually sixteen hours later; 10 = complete protection, 0 = no protection. The experiment is classed as in vivo, Patio variety tomato seedlings. How it is done: as §1, §2
Spray application treatment entails using a DeVilbiss atomizer to completely cover all foliage and stems of two pots of Patio var. tomato plants with the appropriate amount of experimental compound dissolved in 10% acetone/90% water with 0.05% Silwett L-77 surfactant. Plants are air-dried in a drying hood for four hours then transferred to a 4.8 L polystyrene chamber which is sealed.
Ethylene gas equal to 10 ppm v/v final concentration is injected into the sealed chamber. Sixteen hours later the chambers are opened in an exhaust hood, allowed to air and the plants scored visually for the degree of protection against ethylene-induced epinasty conferred by the experimental compound when compared to ethylene treated and untreated controls on a scale of 0 to 10. A rating of 10 means complete protection. […]

As to `C1=C2CCCCCC12` (centres unmarked) [Compound 1, Bicyclo[5.1.0]oct-1(8)-ene], in experiment [1], the “Gas @ 10 ppm: degree of protection against ethylene-induced epinasty, rating on a scale of 0 to 10” value was found to be 8. In experiment [2], the “Spray @ 10 ppm: degree of protection against ethylene-induced epinasty, rating on a scale of 0 to 10” value is reported as 0.

As for `CCCCCCCCC1=CC12OCC(C)(C)CO2` [Compound 2, 6.6-Dimethyl-1-octyl-4.8-dioxa-spiro[2.5]oct-1-ene], the “Gas @ 10 ppm: degree of protection against ethylene-induced epinasty, rating on a scale of 0 to 10” value in experiment [1] is 0. The “Gas @ 1000 ppm: degree of protection against ethylene-induced epinasty, rating on a scale of 0 to 10” value in experiment [1] (compound as volatile gas at 1000 ppm v/v) is listed as 4. Further, in experiment [2], the “Spray @ 10 ppm: degree of protection against ethylene-induced epinasty, rating on a scale of 0 to 10” value came out at 0.

Source of the values: US7041625B2, “Method to inhibit ethylene responses in plants” (Rohm and Haas Company, priority 2003, dated 2006).
